These results are taken from the METLIN SMRT retention time set (Domingo-Almenara et al. 2019).

The nature of this data set: gradient 5% acetonitrile 3 min, to 50% in 2 min, to 85% in 15 min, held 3 min, 100 µL/min. The settings on record: column: Zorbax Extend-C18 2.1 x 50 mm; eluents: water / acetonitrile, 0.1% formic acid. In short, it runs like this:
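Retention times of pure standards were taken from adduct peaks that were selected by computer and manually inspected. Over 3 months, mixtures of ~100 molecules were run by HPLC–quadrupole time-of-flight mass spectrometry in positive and negative ionization mode. The Zorbax Extend-C18 column (2.1 × 50 mm, 1.8 μm) ran at 100 μL/min in water and acetonitrile, each containing 0.1% formic acid, with 40 μL dead volume and 900 μL dwell volume.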
In turn, `CCOc1ccccc1NC(=O)Cn1c(=O)n(Cc2cccs2)c(=O)c2ncccc21` gave an RP-LC retention time of 772 s. Regarding `NC(=NC1C2CC3CC(C2)CC1C3)Nc1ccc(I)cc1` (stereo not drawn), the RP-LC retention time is 887 s. The result for `O=C(Nc1ccc(F)cc1)C1CC(=O)N(c2ccc3c(c2)CCN3C(=O)C2CC2)C1` (stereo not drawn) reads 775 s. Turning to `CCC(C)NC(=O)CC1Sc2ncccc2N(C)C1=O` (stereo not drawn), the RP-LC retention time turned out to be 632 s. `CCc1ccc(NC(=O)c2sc3nc(C)nc(N4CCN(c5ccccn5)CC4)c3c2C)cc1` returned an RP-LC retention time of 779 s. Turning to `COCCNC(=O)c1cc2c(n(-c3ccc(C(C)C)cc3)c1=O)CCCC2=O`, the RP-LC retention time came out at 872 s. On to `CCC(CC)C(=O)Nc1nc(-c2ccc3c(c2)NC(=O)CO3)cs1`, for which the RP-LC retention time is 846 s. Compound `O=C(Nc1cc(F)cc(F)c1)C1CCN(C(=O)c2ncn3c2COC(c2ccc(F)cc2)C3)CC1` (stereo not drawn) gave an RP-LC retention time of 858 s. The figure for `CN(C)S(=O)(=O)c1ccc(-n2cnc(C(=O)N3CCN(Cc4ccccc4)CC3)c2)cc1` is 626 s. In turn, `O=C([C@@H]1C[C@H](F)CN1C(=O)NCc1ccco1)N1CCCCC1` gave an RP-LC retention time of 631 s.

As for `Nc1cc(C2CCN(C(=O)COc3ccccc3)CC2)no1`, the RP-LC retention time amounted to 662 s. `Cc1ccc(-n2c(N3CCCC(C(=O)NCc4ccc(C)c(C)c4)C3)nc3ccsc3c2=O)cc1` (stereo not drawn): the RP-LC retention time stood at 987 s.

Take `O=C(Cn1nc(S(=O)(=O)c2ccc(Cl)cc2)ccc1=O)N1CCN(c2ccccc2F)CC1`: the RP-LC retention time was 937 s. Turning to `COc1ccc(Nc2nc(N3CCN(c4ncccn4)CC3)nc3c2C(=O)CC(C)(C)C3)cc1`, the RP-LC retention time amounted to 1250 s. In the case of `Cn1nccc1-c1cccc(-c2noc(Cc3ccc(Br)cc3)n2)c1`, the RP-LC retention time came out at 1150 s. In turn, `O=C(Nc1nccs1)C1CCN(c2nc(-c3ccc(Cl)cc3)no2)CC1` gave an RP-LC retention time of 976 s. `CCOc1cccc(C2c3[nH]c4ccccc4c3CCN2C(=O)c2ccncc2)c1` (stereo not drawn) registered an RP-LC retention time of 959 s. Consider `COc1ccccc1N1CCN(c2cc(C(=O)O)c3cc(NS(C)(=O)=O)ccc3n2)CC1`, for which the RP-LC retention time was determined as 619 s. In the case of `O=C(Nc1ccc(F)c(F)c1)c1c(O)c2cccnc2n(-c2cccc(F)c2)c1=O`, the RP-LC retention time is 1260 s. Compound `CCN(CC)S(=O)(=O)c1ccc2nc(N3CCN(c4ccccn4)CC3)cnc2c1` gave an RP-LC retention time of 675 s. Compound `COc1ccc(CCS(=O)(=O)Nc2ccc3c(c2)N(C(=O)C2CCCO2)CC3)cc1` (stereo not drawn) returned an RP-LC retention time of 762 s. `O=C(c1ccc(OCC2CCCN(C(=O)c3ccc(F)c(F)c3)C2)cc1)N1CCOCC1` (stereo not drawn) returned an RP-LC retention time of 801 s. `CC(C)OCCCNC(=O)c1ccc2cnn(Cc3ccc(F)cc3)c2c1`: the RP-LC retention time came out at 656 s. For `CN1CCN(C(=O)c2nnc(-c3ccc(S(=O)(=O)N4CCCCC4)cc3)o2)CC1`, the RP-LC retention time was 654 s. Compound `Cc1ccc(NC(=O)N2CCN(c3nc4ccccc4nc3C(F)(F)F)CC2)cc1F` came in with an RP-LC retention time of 1150 s. The result for `Cc1noc(C)c1CC(=O)N1CCC2(CC1)N(CC1CC1)C(=O)CS2=O` (stereo not drawn) reads 613 s. The compound `CCCn1ccc2sc(C)c(C(=O)N3CCN(C4CCCCC4)CC3)c2c1=O` showed an RP-LC retention time of 606 s. In turn, `CCCCNC(=O)C1CCCN(c2nnc(C)c3c(C)n(-c4ccccc4)nc23)C1` (stereo not drawn) displayed an RP-LC retention time of 686 s. The compound `O=C(NCCc1ccccc1)Nc1cnn(-c2ncc(N3CCCCC3)cn2)c1` showed an RP-LC retention time of 799 s. In the case of `O=C(c1csc(N2CCN(c3ccc(F)cc3)CC2)n1)N1CCCCC1`, the RP-LC retention time was 1000 s. As for `Cc1noc(C)c1CNC(=O)c1cccc(OC(F)(F)F)c1`, the RP-LC retention time was 864 s. The result for `CCN1CCN(c2ccc(NC(=O)c3ccc(F)cc3Cl)cn2)C1=O` reads 742 s; that for `O=C(CC1CCCC1)N1CCCCC1c1nncn1Cc1ccccc1` (stereo not drawn), 890 s.

In the case of `Cn1cc(C(CNC(=O)Nc2ccccc2Cl)c2cccnc2)c2ccccc21` (stereo not drawn), the RP-LC retention time amounted to 726 s. The figure for `Cc1ccc(NC(=O)N2C[C@@H](F)C[C@H]2C(=O)N2CCc3ccccc3C2)cc1Cl` is 895 s. On to `CCS(=O)(=O)Nc1ccc2nc(N3CCN(c4ccc(OC)cc4)CC3)cc(C(=O)O)c2c1`, for which the RP-LC retention time came out at 626 s.

In the case of `CCNC(=O)C1CCN(c2cc(SCC(=O)Nc3ccc(C(=O)OCC)cc3)ncn2)CC1`, the RP-LC retention time came out at 725 s. The figure for `CSc1ccc(CNC(=O)CCNc2cnc3cnccn23)cc1` is 588 s; for `CCOC(=O)c1nc(Nc2ccc(F)c(Cl)c2)c2ccccc2n1` it is 971 s.

`O=C(c1ccc(Br)o1)N1CCN(c2ccc(=O)n(-c3ccc(Cl)cc3)n2)CC1` gave an RP-LC retention time of 878 s. `COc1cc(NS(=O)(=O)c2cc3n(c2)CCN(C(C)C)C3=O)cc(OC)c1` gave an RP-LC retention time of 748 s. The result for `O=C(c1cccc(Br)c1)N1CCN(Cc2noc3ccccc23)CC1` reads 756 s; that for `Cc1ccc(C)c(CNC(=O)c2nc(C)oc2C)c1`, 867 s. As for `COc1ccc(CNC(=O)C2CCCN(c3ccc(=O)n(-c4cccc(Cl)c4)n3)C2)c(OC)c1` (stereo not drawn), the RP-LC retention time worked out at 876 s. `CC(NC(=O)Cn1c(=O)c(=O)n(C)c2ncccc21)c1ccccc1` (stereo not drawn) yielded an RP-LC retention time of 677 s. For `O=C(Nc1ccccc1)c1nnc(CCC(=O)N2CCN(c3ccccn3)CC2)s1`, the RP-LC retention time was 617 s. `COc1cc(C(O)c2nc3ccccc3s2)cc(OC)c1OC` (stereo not drawn) returned an RP-LC retention time of 826 s. `COc1ccc(NC(=O)CN2C(=O)CC(C)Sc3ccccc32)c(OC)c1` (stereo not drawn) had an RP-LC retention time of 853 s. Regarding `Cc1ccc2c(c1)N(C(=O)Cn1ccn3nc(-c4ccc(F)cc4)c(CO)c3c1=O)CCO2`, the RP-LC retention time is 930 s. The figure for `CCn1cnc2cc(-c3noc(CNC(=O)c4ccc(C)cc4)n3)ccc21` is 654 s; for `CC(C)CCNC(=O)C1(C)Cn2nc(C(=O)NCc3ccc(Cl)cc3)cc2C(=O)N1C` (stereo not drawn) it is 822 s; for `CCCCc1ccc(NC(=O)CSc2ccc(N3CCCC(C(=O)NCCC)C3)nn2)cc1` (stereo not drawn) it is 860 s.

The compound `CC(C)CN(CC(C)C)C(=O)CCCN1C(=O)c2ccccc2C1=O` returned an RP-LC retention time of 947 s.

On to `COc1ccc(OCC(=O)N(C)CCc2noc(C3CCCCC3)n2)cc1`, for which the RP-LC retention time is 912 s.

Consider `CC(C)c1nnc(-c2cccnc2N2CCN(C(=O)CC3CCCC3)CC2)o1`, for which the RP-LC retention time came out at 872 s. `O=C(Nc1ccccn1)C1CCCN(S(=O)(=O)c2cc(-c3noc(C4CCC4)n3)cs2)C1` (stereo not drawn): the RP-LC retention time was determined as 978 s. `COc1ccc2nc(NC3=NCN(Cc4cccnc4)CN3)nc(C)c2c1`: the RP-LC retention time was 560 s. `CN1CCN(C(=O)Cn2cccc2-c2nc(-c3ccc(Cl)cc3)cs2)CC1`: the RP-LC retention time came to 715 s.
